Laboratory results from patent publication US20260200964A1, “MONOSACCARIDES, PHARMACEUTICAL COMPOSITIONS, AND DIAGNOSTIC AND THERAPEUTIC APPLICATIONS” (Surio Therapeutics Co., LTD., priority 2022, published 2026).

Columns and labels:
A549 cells = assay: Flow cytometry analysis of cell labeling (azido labeling efficiency); assay type: cell-based; settings: Homo sapiens; A549 cells (lung); azido compound 25 μM, 48 h; mean fluorescence of live cells compared with PBS negative control
Procedure: (§1) Cells (2.0×10^6 cells/mL, 2 mL) were seeded in a 6-well culture plate and attached at 37° C. overnight. After washed thrice with PBS, the cells were incubated with an azido compound (25 μM) at 37° C. for 48 h. After washed thrice with PBS, the cells were incubated with DBCO-biotin (50 μM) in 500 μL serum free DMEM at 37° C. for 1 h. The cells were washed thrice with PBS and then incubated with streptavidin-Cy5 (5 μg/mL) in 500 μL serum free DMEM at 37° C. for 1 h. The cells were washed thrice with PBS, followed by addition of 300 μL 1×trypsin/EDTA for digestion. The lifted cells were transferred to a 1.5 mL EP tube, centrifuge at 1,000 rpm for 3 min, and washed with PBS once. Finally, 500 μL PBS containing 4% PFA was added to the cell pellet to fix the cells. The cell suspension was transferred to a flow tube and mixed with 10 μL of a PI working solution (50 μg/mL) at room temperature for 30 min before being subjected to flow cytometry.
(§2) Flow cytometry was used to characterize the labeling efficiency of a compound provided herein. After cells were labeled with an azido group, DBCO-biotin was added to specifically react with the azido group. Avidin-Cy5 was added bind to the cell surface biotin for a flow cytometry analysis. Dead cells were stained with PI and excluded from the analysis. Results were presented as the mean fluorescence of live cells, compared with PBS as a negative control and Ac4ManNAz (AAM) as a positive control, Ac4ManNAz (AAM, CAS: 361154-30-5).

MDA-MB-231 = assay: as above; assay type: cell-based; settings: MDA-MB-231 (breast), azido compound 25 μM, 48 h
Procedure: as §1, §2

OVCAR3 = assay: as above; assay type: cell-based; settings: OVCAR3 (ovarian), azido compound 25 μM, 48 h
Procedure: as §1, §2

[1] = Compound stability in a biological matrix (mouse plasma); assay type: in vitro ADME; settings: 10 μg/mL, 37° C., LC-MS/MS
Procedure: (§3) A compound was dissolved in DMSO as a 1 mg/mL stock solution. An ACN solution of the compound at 100 μg/mL was prepared from the stock solution, 10 μL of which was added to a biological matrix (90 μL) to the final concentration of 10 μg/mL for the compound. The mixtures of the compound in a biological matrix were incubated at 37° C. for 0, 0.5, 1, or 4 h. At each time point, ACN (900 μL) was added to a mixture. After the mixture was centrifuged at 15,000 rpm for 5 min, the supernatant was mixed with the same volume of H2O (1% TFA) and then analyzed by LC-MS/MS. The results are summarized in Table 3, wherein Cbz-AAM is (2R,3S,4R,5S)-6-((4-((S)-6-acetamido-2-(((benzyloxy)carbonyl)amino)hexan-amido)phenyl)(phenyl)methoxy)-2-(acetoxymethyl)-5-(2-azidoacetamido)tetrahydro-2H-pyran-3,4-diyl diacetate.

[2] = Compound stability in a biological matrix (human plasma); assay type: in vitro ADME; settings: 10 μg/mL, 37° C., LC-MS/MS
Procedure: as §3

[3] = mean fluorescence of live cells compared with Ac4ManNAz (AAM) positive control
[4] = mean fluorescence of live cells compared with PBS negative control

| Compound | activity at 25 µM (A549 cells) | Labeling Efficiency AAM % (MDA-MB-231; [3]) | Labeling Efficiency PBS % (MDA-MB-231; [4]) | Labeling Efficiency AAM % (OVCAR3; [3]) | Labeling Efficiency PBS % (OVCAR3; [4]) | Compound Remaining (%) Mouse 1 h [1] | Compound Remaining (%) Mouse 4 h [1] | Compound Remaining (%) Human 1 h [2] | Compound Remaining (%) Human 4 h [2] |
| --- | --- | --- | --- | --- | --- | --- | --- | --- | --- |
| CC(=O)NCCCC[C@H](NC(=O)OCc1ccccc1)C(=O)Nc1ccc(C(OC2OC(COC(C)=O)C(OC(C)=O)C(OC(C)=O)C2NC(=O)CN=[N+]=[N-])c2ccnn2C)cc1 (stereo partly drawn) [Compound A8, 1-O-(1-(2-methylpyrazol-3-yl)-1-(4-(6-acetamido-2(S)-(benzyloxycarbonyl-amino)hexanamido)phenyl)methyl)-2-(2-azidoacetylamino)-2-deoxy-3,4,6-tri-O-acetyl-D-mannopyranoside] | 196% | 31% | 209% | 24% | 132% | 76% | 23% | 61% | 16% |
| CC(=O)NCCCC[C@H](NC(C)=O)C(=O)Nc1ccc(C(OC2OC(COC(C)=O)C(OC(C)=O)C(OC(C)=O)C2NC(=O)CN=[N+]=[N-])c2ccnn2C)cc1 (stereo partly drawn) [Compound A14, 1-O-(1-(2-Methylpyrazol-3-yl)-1-(4-(2(S),6-diacetamidohexanamido)phenyl)-methyl)-2-(2-azidoacetylamino)-2-deoxy-3,4,6-tri-O-acetyl-D-mannopyranoside] | 620% |  |  |  |  | 89% | 40% | 63% | 19% |
| CC(=O)NCCCC[C@H](NC(C)=O)C(=O)Nc1ccc(C(OC2OC(COC(C)=O)C(OC(C)=O)C(OC(C)=O)C2NC(=O)CN=[N+]=[N-])c2nccs2)cc1 (stereo partly drawn) [Compound A15, 1-O-(1-(Thiazol-2-yl)-1-(4-(2(S),6-diacetamidohexanamido)phenyl)methyl)-2-(2-azidoacetylamino)-2-deoxy-3,4,6-tri-O-acetyl-D-mannopyranoside] | 318% |  |  |  |  | 2% | <2% | 2% | <2% |
| CC(=O)NCCCC[C@H](NC(C)=O)C(=O)Nc1ccc(C(OC2OC(COC(C)=O)C(OC(C)=O)C(OC(C)=O)C2NC(=O)CN=[N+]=[N-])c2cncs2)cc1 (stereo partly drawn) [Compound A16, 1-O-(1-(Thiazol-5-yl)-1-(4-(2(S),6-diacetamidohexanamido)phenyl)methyl)-2-(2-azidoacetylamino)-2-deoxy-3,4,6-tri-O-acetyl-D-mannopyranoside] | 136% |  |  |  |  | 93% | 73% | 97% | 86% |
| CC(=O)NCCCC[C@H](NC(C)=O)C(=O)Nc1ccc(C(OC2OC(COC(=O)Cc3cccnc3)C(OC(C)=O)C(OC(C)=O)C2NC(=O)CN=[N+]=[N-])c2ccnn2C)cc1 (stereo partly drawn) [Compound A17, 1-O-(1-(2-Methylpyrazol-3-yl)-1-(4-(2(S),6-diacetamidohexanamido)phenyl)-methyl)-2-(2-azidoacetylamino)-2-deoxy-3,4-di-O-acetyl-6-O-(pyridin-3-ylacetyl)-D-mannopyranoside] | 161% |  |  |  |  | 77% | 28% | 63% | 10% |
| CC(=O)NCCCC[C@H](NC(C)=O)C(=O)Nc1ccc(C(OC2OC(COC(=O)C3CCN(C)CC3)C(OC(C)=O)C(OC(C)=O)C2NC(=O)CN=[N+]=[N-])c2ccnn2C)cc1 (stereo partly drawn) [Compound A18, 1-O-(1-(2-Methylpyrazol-3-yl)-1-(4-(2(S),6-diacetamidohexanamido)phenyl)-methyl)-2-(2-azidoacetylamino)-2-deoxy-3,4-di-O-acetyl-6-O-(1-methylpiperidin-4-ylcarbonyl)-D-mannopyranoside] | 104% |  |  |  |  | 100% | 93% | 95% | 85% |
